Results on 47 compounds are retold here after patent US20050123917A1, “Method for characterising and/or identifying active mechanisms of antimicrobial test substances” (priority 2001, published 2005).

In brackets after ≈: the same amount, converted by molar mass. Starred links: 1 amine or outer side, 2 acyl side, 3 side chain; linkers in the order of their positions; H or OH if unused. Positions of bridges follow the written chain, without caps; N, C: chain ends. Non-standard residues stand in square brackets, D forms with d. Residues, ends and D or L forms follow the SMILES beside them. Chains are numbered I, II in the order given. Actinocin(9to1) = Cc1c2oc3c(C)ccc(C(=O)[*:1])c3nc-2c(C(=O)[*:2])c(N)c1=O; NMeV = CN[C@H](C(=O)O)C(C)C; Orn = NCCC[C@H](N)C(=O)O; Sar = CNCC(=O)O

The first assay deals with Bacillus subtilis 168. In words: Determination of the minimum inhibiting agent concentration (MIC). The assay is classed as cell-based. The conditions noted are these: B. subtilis 168, Belitsky Minimal Medium, 18-24 hrs at 37° C. On the procedure: The test substance may be an inhibiting agent. The concentration of inhibiting agent with which the bacterial culture is treated should preferably be in the range of 0.1× to 20× the minimum inhibiting agent concentration (MIC) for the test substance. The minimum inhibiting agent concentration is the minimum concentration of an antibiotic which inhibits the growth of a test germ over a period of 18-24 hours. The inhibiting agent concentration can therefore be determined according to standard microbiological procedures (see for example The-National Committee for Clinical Laboratory Standards. Methods for dilution antimicrobial susceptibility tests for bacteria that grow aerobically; approved standard-fifth edition. NCCLS document M7-A5 [ISBN 1-56238-394-9]. NCCLS, 940 West Valley Road, Suite 1400, Wayne, Pa. 19087-1898 USA, 2000.). The test spectra are recorded from a microbial culture that has been treated with the inhibiting agent in one, or preferably in several concentrations.
For the production of an overnight culture, 22 ml of Belitsky Minimal Medium (Stuhlke et al. (1993) Temporal activation of beta-glucauase synthesis in Bacillus subtilis is mediated by the GTP pool. J. Gen. Microbiol. 1993 Sep; 139 (pt 9):2041-5) was injected with an aliquot of the test germ Bacillus subtilis 168 from a permanent culture stored at −80° C., and incubated at 37° C. and 200 rpm.
In the case of `O=c1[nH]c(=O)n([C@H]2C[C@H](O)[C@@H](CO)O2)cc1F` [5-fluor-2-desoxyuridine], the MIC came out at 0.25 µg/mL (≈ 1.02 µM).
Same read-out and setting: for `N[C@@H]1CONC1=O` [D-cycloserine] the value was 64 µg/mL (≈ 627 µM); for `Cc1c2oc3c(C)ccc(C(=O)N[C@@H]4C(=O)N[C@H](C(C)C)C(=O)N5CCC[C@H]5C(=O)N(C)CC(=O)N(C)[C@@H](C(C)C)C(=O)O[C@@H]4C)c3nc-2c(C(=O)N[C@@H]2C(=O)N[C@H](C(C)C)C(=O)N3CCC[C@H]3C(=O)N(C)CC(=O)N(C)[C@@H](C(C)C)C(=O)O[C@@H]2C)c(N)c1=O` [actinomycin D] (I: T[dV]P[Sar][NMeV] / II: T[dV]P[Sar][NMeV]; ester I:1-I:C, II:1-II:C; linker I:N-II:N via Actinocin(9to1)), 1 µg/mL (≈ 0.797 µM); for `CC[n+]1c(-c2ccccc2)c2cc(N)ccc2c2ccc(N)cc21.[Br-]` [ethidiumbromid], 4 µg/mL.
On the same count and under the same terms, for `CC(C)C[C@@H]1NC(=O)[C@H](CCCN)NC(=O)[C@H](C(C)C)NC(=O)[C@@H]2CCCN2C(=O)[C@@H](Cc2ccccc2)NC(=O)[C@H](CC(C)C)NC(=O)[C@H](CCCN)NC(=O)[C@H](C(C)C)NC(=O)[C@@H]2CCCN2C(=O)[C@@H](Cc2ccccc2)NC1=O` [gramicidin S] (cyclo(V[Orn]L[dF]PV[Orn]L[dF]P)) the value was 1 µg/mL (≈ 0.876 µM); for `CO[C@@]12[C@H](COC(N)=O)C3=C(C(=O)C(C)=C(N)C3=O)N1C[C@@H]1N[C@@H]12` [mitomycin C], 0.25 µg/mL (≈ 0.748 µM); for `CC1(C)S[C@@H]2[C@H](NC(=O)Cc3ccccc3)C(=O)N2[C@H]1C(=O)O` [penicillin G], 4 µg/mL (≈ 12 µM).
As for `CN(C)[C@@H]1C(=O)C(C(N)=O)=C(O)[C@@]2(O)C(=O)C3=C(O)c4c(O)cccc4[C@@](C)(O)[C@H]3C[C@@H]12` [tetracyclin], the MIC stood at 16 µg/mL (≈ 36 µM).
As to enniatin, the MIC worked out at 16 µg/mL.
On the same count and under the same terms, in the case of gentamicin it was 0.125 µg/mL; in that of gramicidin A, 4 µg/mL; in that of mersacidin, 16 µg/mL.
On the same count and under the same terms, in the case of neomycin it was 0.125 µg/mL; in that of polymyxin B-sulfate, 16 µg/mL.
On the same count and under the same terms, in the case of ramoplanin it was 1 µg/mL; in that of ristocetin, 0.5 µg/mL.
For teichoplanin, the minimum inhibitory concentration (MIC) came to 0.125 µg/mL.

Staying with this assay, now noted: Bacillus subtilis, 168.
On to `CN[C@H](CC(C)C)C(=O)N[C@H]1C(=O)N[C@@H](CC(N)=O)C(=O)N[C@H]2C(=O)N[C@H]3C(=O)N[C@H](C(=O)N[C@H](C(=O)O)c4cc(O)cc(O)c4-c4cc3ccc4O)[C@H](O)c3ccc(c(Cl)c3)Oc3cc2cc(c3O[C@@H]2O[C@H](CO)[C@@H](O)[C@H](O)[C@H]2O[C@H]2C[C@](C)(N)[C@H](O)[C@H](C)O2)Oc2ccc(cc2Cl)[C@H]1O` [vancomycin], for which the MIC was found to be 0.25 µg/mL (≈ 0.173 µM).

The assay is the same for the next values; noted with them: Bacillus subtilis; B. subtilis 168, Belitsky Minimal Medium, 18-24 hrs at 37° C.; read-out: MIC.
With `O=c1[nH]cc(F)c(=O)[nH]1` [5-fluoro-uracile], the minimum inhibitory concentration (MIC) turned out to be 0.25 µg/mL (≈ 1.92 µM).
Same read-out and setting: for `[N-]=[N+]=CC(=O)OC[C@H](N)C(=O)O` [azaserine] the value was 4 µg/mL (≈ 23.1 µM).
The same measure, in the same setting: for `CC[C@H]1OC(=O)[C@H](C)[C@@H](O[C@H]2C[C@@](C)(OC)[C@@H](O)[C@H](C)O2)[C@H](C)[C@@H](O[C@@H]2O[C@H](C)C[C@H](N(C)C)[C@H]2O)[C@](C)(O)C[C@@H](C)CN(C)[C@H](C)[C@@H](O)[C@]1(C)O` [azithromycin] the value was 1 µg/mL (≈ 1.34 µM).
On the same count and under the same terms, for `CO[C@@]1(NC(=O)Cc2cccs2)C(=O)N2C(C(=O)O)=C(COC(N)=O)CS[C@@H]21` [cefoxitin] the value was 2 µg/mL (≈ 4.68 µM).
Take `C/C=C/C/C=C/CCC(=O)[C@H]1O[C@H]1C(N)=O` [cerulenin]: the MIC turned out to be 16 µg/mL (≈ 71.7 µM).
Still for that read-out and setting: for `O=C(N[C@H](CO)[C@H](O)c1ccc([N+](=O)[O-])cc1)C(Cl)Cl` [chloramphenicol] the value was 4 µg/mL (≈ 12.4 µM); for `CC[C@H]1OC(=O)[C@H](C)[C@@H](O[C@H]2C[C@@](C)(OC)[C@@H](O)[C@H](C)O2)[C@H](C)[C@@H](O[C@@H]2O[C@H](C)C[C@H](N(C)C)[C@H]2O)[C@](C)(OC)C[C@@H](C)C(=O)[C@H](C)[C@@H](O)[C@]1(C)O` [clarithromycin], 0.0625 µg/mL (≈ 0.0836 µM); for `CCC[C@@H]1C[C@@H](C(=O)N[C@@H]([C@H]2O[C@H](SC)[C@H](O)[C@@H](O)[C@H]2O)[C@H](C)Cl)N(C)C1` [clindamycin], 2 µg/mL (≈ 4.71 µM).
Same read-out and setting: in the case of `COc1cccc2c1C(=O)c1c(O)c3c(c(O)c1C2=O)C[C@@](O)(C(=O)CO)C[C@@H]3O[C@H]1C[C@H](N)[C@H](O)[C@H](C)O1` [doxorubicin] it was 8 µg/mL (≈ 14.7 µM); in that of `CC[C@H]1OC(=O)[C@H](C)[C@@H](O[C@H]2C[C@@](C)(OC)[C@@H](O)[C@H](C)O2)[C@H](C)[C@@H](O[C@@H]2O[C@H](C)C[C@H](N(C)C)[C@H]2O)[C@](C)(O)C[C@@H](C)C(=O)[C@H](C)[C@@H](O)[C@]1(C)O` [erythromycin], 0.5 µg/mL (≈ 0.681 µM); in that of `CC(=O)O[C@H]1C[C@@]2(C)[C@@H](C[C@@H](O)[C@H]3[C@@]4(C)CC[C@@H](O)[C@@H](C)[C@@H]4CC[C@@]32C)/C1=C(\CCC=C(C)C)C(=O)O` [fusidic acid], 0.5 µg/mL (≈ 0.968 µM).
On the same count and under the same terms, in the case of `NC[C@H]1O[C@H](O[C@H]2[C@H](O)[C@@H](O[C@H]3O[C@H](CO)[C@@H](O)[C@H](N)[C@H]3O)[C@H](N)C[C@@H]2N)[C@H](O)[C@@H](O)[C@@H]1O` [kanamycin] it was 0.5 µg/mL (≈ 1.03 µM); in that of `CC[C@@H](C(=O)[C@@H](C)[C@@H](O)[C@H](C)CCc1ccc(C)c(O)c1C(=O)O)[C@H]1O[C@](CC)([C@H]2CC[C@](O)(CC)[C@H](C)O2)C[C@@H]1C` [lasalocid], 1 µg/mL (≈ 1.69 µM).
`COc1cccc(OC)c1C(=O)N[C@@H]1C(=O)N2[C@@H]1SC(C)(C)[C@@H]2C(=O)O` [methicillin]: the minimal inhibitory concentration (MIC) was 0.125 µg/mL (≈ 0.329 µM).
In the case of `CC[C@@]1([C@@H]2O[C@@H]([C@H]3O[C@@](O)(CO)[C@H](C)C[C@@H]3C)C[C@@H]2C)CC[C@H]([C@]2(C)CC[C@]3(C[C@H](O)[C@@H](C)[C@@H]([C@@H](C)[C@@H](OC)[C@H](C)C(=O)O)O3)O2)O1` [monensin], the MIC was determined as 4 µg/mL (≈ 5.96 µM).
Same read-out and setting: in the case of `CO[C@@]1(NC(=O)C(C(=O)O)c2ccc(O)cc2)C(=O)N2C(C(=O)O)=C(CSc3nnnn3C)CO[C@@H]21` (some centres unmarked) [moxalactam] it was 4 µg/mL (≈ 7.69 µM); in that of `C/C(=C\C(=O)OCCCCCCCCC(=O)O)C[C@@H]1OC[C@H](C[C@@H]2O[C@H]2[C@@H](C)[C@H](C)O)[C@@H](O)[C@H]1O` [mupirocin], 0.0625 µg/mL (≈ 0.125 µM); in that of `CCn1cc(C(=O)O)c(=O)c2ccc(C)nc21` [nalidixic acid], 32 µg/mL (≈ 138 µM).
Still for that read-out and setting: for `CO[C@@H]1C[C@@H](C[C@H]2CC[C@H](C)[C@H]([C@@H](C)C(=O)O)O2)O[C@]2(O[C@](C)([C@H]3CC[C@@](C)([C@@H]4O[C@@H]([C@H]5O[C@@](O)(CO)[C@H](C)C[C@@H]5C)C[C@@H]4C)O3)C[C@H]2C)[C@@H]1C` [nigericin] the value was 1 µg/mL (≈ 1.38 µM); for `O=C1CN(/N=C/c2ccc([N+](=O)[O-])o2)C(=O)N1` [nitrofurantoin], 16 µg/mL (≈ 67.2 µM); for `CO[C@@H]1[C@@H](OC(N)=O)[C@@H](O)[C@H](Oc2ccc3c(O)c(NC(=O)c4ccc(O)c(CC=C(C)C)c4)c(=O)oc3c2C)OC1(C)C` [novobiocin], 2 µg/mL (≈ 3.26 µM).
As to `Cc1onc(-c2ccccc2)c1C(=O)N[C@@H]1C(=O)N2[C@@H]1SC(C)(C)[C@@H]2C(=O)O` [oxacillin], the MIC amounted to 0.5 µg/mL (≈ 1.25 µM).
For `Nc1ccc2cc3ccc(N)cc3nc2c1` [proflavin], the MIC was determined as 8 µg/mL (≈ 38.2 µM).
Same read-out and setting: for `COc1ccc(C[C@H](N)C(=O)N[C@H]2[C@@H](O)[C@H](n3cnc4c(N(C)C)ncnc43)O[C@@H]2CO)cc1` [puromycin] the value was 8 µg/mL (≈ 17 µM).
In the case of `CO[C@H]1/C=C/O[C@@]2(C)Oc3c(C)c(O)c4c(O)c(c(/C=N/N5CCN(C)CC5)c(O)c4c3C2=O)NC(=O)/C(C)=C\C=C\[C@H](C)[C@H](O)[C@@H](C)[C@@H](O)[C@@H](C)[C@H](OC(C)=O)[C@@H]1C` [rifampicin], the MIC was found to be 0.25 µg/mL (≈ 0.304 µM).
Still for that read-out and setting: in the case of `CN[C@@H]1[C@H](O)[C@H](NC)[C@H]2O[C@@]3(O)C(=O)C[C@@H](C)O[C@H]3O[C@@H]2[C@H]1O` [spectinomycin] it was 16 µg/mL (≈ 48.1 µM).
Turning to `[H]/N=C(/N)N[C@H]1[C@H](O)[C@@H](O)[C@H](O[C@@H]2O[C@@H](C)[C@](O)(C=O)[C@H]2O[C@@H]2O[C@@H](CO)[C@H](O)[C@@H](O)[C@@H]2NC)[C@@H](N/C(N)=N\[H])[C@@H]1O` [streptomycin], the MIC was found to be 128 µg/mL (≈ 220 µM).
With `NC[C@H]1O[C@H](O[C@H]2[C@H](O)[C@@H](O[C@H]3O[C@H](CO)[C@@H](O)[C@H](N)[C@H]3O)[C@H](N)C[C@@H]2N)[C@H](N)C[C@@H]1O` [tobramycin], the MIC is 0.0625 µg/mL (≈ 0.134 µM).
On the same count and under the same terms, in the case of `COc1cc(Cc2cnc(N)nc2N)cc(OC)c1OC` [trimethoprim] it was 0.5 µg/mL (≈ 1.72 µM).
